The numbers were not newly measured in publication PMC9128007 (ACS Pharmacology & Translational Science, 2022), which cites them from elsewhere.

This data set has as its system panel of seven proteases including selected cysteine (3), serine (3), and aspartyl (1) proteases.

For `CC(C)(C)[C@H](NC(=O)C(F)(F)F)C(=O)N1C[C@H]2[C@@H]([C@H]1C(=O)N[C@H](C#N)C[C@@H]1CCNC1=O)C2(C)C` [Nirmatrelvir], the “activity in a panel of seven proteases” value is reported as “lack of activity”.
